Assay results reported in patent US20150329558A1, “FUSED HETEROCYCLIC COMPOUNDS AS ION CHANNEL MODULATORS” (Gilead Sciences, Inc., priority 2011, published 2015).
Where two headings read alike, the source gives them in different places.

Legend:
[1] = target: wild-type human cardiac sodium channel, hNav1.5 (late INa) (Homo sapiens, UniProt Q14524); experiment: Late INa screening assay (QPatch whole cell patch clamp); format: cell-based
Outline: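 HEK293 cells stably expressing hNav1.5 alpha subunit without beta subunits, QPatch automated whole-cell clamp at 23-25° C, CsF-based internal solution pH 7.4. Late INa induced by 10 μM tefluthrin; 250 ms steps to −20 mV from −120 mV at 0.1 Hz, compounds at 1 μM. Percent block of mean current 225–250 ms into the step.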

[2] = Microsomal stability assay, rat; format: in vitro ADME; conditions: metabolic stability, rat liver microsomes 0.5 mg/mL, substrate 3 uM
Experimental: (§1) The micorsomal stability assay is generally performed as follows. Format: 15 compounds (and 1 control verapamil) in 3 different species in duplicate sets Substrate: 3 uM Protein concentration: 0.5 mg/mL (for dog, rat, and human liver microsomes) Cofactor: 1×NADPH-Regenerating system Time-points: 2, 12, 25, 45, and 65 minutes [table] Sample preparation: 25 uL at each timepoint is added to plate with 225 uL quenching solution (50% MeOH, 25% ACN, 25% H2O, and 50 nM […]). After plates are vortexed, centrifuge for 30 minutes. Microsomal solutions: take 400 uL of 20 mg/mL microsomes and add to 13,680 uL 100 mM KPO4 buffer. Using an 8-channel, add 650 uL of this solution to the designated two columns on a short plate. The order should be dog microsomes in columns 1 and 2, rat microsomes in columns 3 and 4, and human microsomes in columns 5 and 6. Keep on ice before use. Place this plate in incubator 1 on the TECAN countertop.

[3] = Microsomal stability assay, dog; format: in vitro ADME; conditions: metabolic stability, dog liver microsomes 0.5 mg/mL, substrate 3 uM
Experimental: as §1

[4] = Microsomal stability assay, human; format: in vitro ADME; conditions: metabolic stability, human liver microsomes 0.5 mg/mL, substrate 3 uM
Experimental: as §1

[5] = percent block of late INa, compound at 1 μM, 10 μM Tefluthrin, HEK293 hNav1.5, read-out: Late INa 1 μM

Sequence of wild-type human cardiac sodium channel, hNav1.5 (late INa) (Q14524 whole entry): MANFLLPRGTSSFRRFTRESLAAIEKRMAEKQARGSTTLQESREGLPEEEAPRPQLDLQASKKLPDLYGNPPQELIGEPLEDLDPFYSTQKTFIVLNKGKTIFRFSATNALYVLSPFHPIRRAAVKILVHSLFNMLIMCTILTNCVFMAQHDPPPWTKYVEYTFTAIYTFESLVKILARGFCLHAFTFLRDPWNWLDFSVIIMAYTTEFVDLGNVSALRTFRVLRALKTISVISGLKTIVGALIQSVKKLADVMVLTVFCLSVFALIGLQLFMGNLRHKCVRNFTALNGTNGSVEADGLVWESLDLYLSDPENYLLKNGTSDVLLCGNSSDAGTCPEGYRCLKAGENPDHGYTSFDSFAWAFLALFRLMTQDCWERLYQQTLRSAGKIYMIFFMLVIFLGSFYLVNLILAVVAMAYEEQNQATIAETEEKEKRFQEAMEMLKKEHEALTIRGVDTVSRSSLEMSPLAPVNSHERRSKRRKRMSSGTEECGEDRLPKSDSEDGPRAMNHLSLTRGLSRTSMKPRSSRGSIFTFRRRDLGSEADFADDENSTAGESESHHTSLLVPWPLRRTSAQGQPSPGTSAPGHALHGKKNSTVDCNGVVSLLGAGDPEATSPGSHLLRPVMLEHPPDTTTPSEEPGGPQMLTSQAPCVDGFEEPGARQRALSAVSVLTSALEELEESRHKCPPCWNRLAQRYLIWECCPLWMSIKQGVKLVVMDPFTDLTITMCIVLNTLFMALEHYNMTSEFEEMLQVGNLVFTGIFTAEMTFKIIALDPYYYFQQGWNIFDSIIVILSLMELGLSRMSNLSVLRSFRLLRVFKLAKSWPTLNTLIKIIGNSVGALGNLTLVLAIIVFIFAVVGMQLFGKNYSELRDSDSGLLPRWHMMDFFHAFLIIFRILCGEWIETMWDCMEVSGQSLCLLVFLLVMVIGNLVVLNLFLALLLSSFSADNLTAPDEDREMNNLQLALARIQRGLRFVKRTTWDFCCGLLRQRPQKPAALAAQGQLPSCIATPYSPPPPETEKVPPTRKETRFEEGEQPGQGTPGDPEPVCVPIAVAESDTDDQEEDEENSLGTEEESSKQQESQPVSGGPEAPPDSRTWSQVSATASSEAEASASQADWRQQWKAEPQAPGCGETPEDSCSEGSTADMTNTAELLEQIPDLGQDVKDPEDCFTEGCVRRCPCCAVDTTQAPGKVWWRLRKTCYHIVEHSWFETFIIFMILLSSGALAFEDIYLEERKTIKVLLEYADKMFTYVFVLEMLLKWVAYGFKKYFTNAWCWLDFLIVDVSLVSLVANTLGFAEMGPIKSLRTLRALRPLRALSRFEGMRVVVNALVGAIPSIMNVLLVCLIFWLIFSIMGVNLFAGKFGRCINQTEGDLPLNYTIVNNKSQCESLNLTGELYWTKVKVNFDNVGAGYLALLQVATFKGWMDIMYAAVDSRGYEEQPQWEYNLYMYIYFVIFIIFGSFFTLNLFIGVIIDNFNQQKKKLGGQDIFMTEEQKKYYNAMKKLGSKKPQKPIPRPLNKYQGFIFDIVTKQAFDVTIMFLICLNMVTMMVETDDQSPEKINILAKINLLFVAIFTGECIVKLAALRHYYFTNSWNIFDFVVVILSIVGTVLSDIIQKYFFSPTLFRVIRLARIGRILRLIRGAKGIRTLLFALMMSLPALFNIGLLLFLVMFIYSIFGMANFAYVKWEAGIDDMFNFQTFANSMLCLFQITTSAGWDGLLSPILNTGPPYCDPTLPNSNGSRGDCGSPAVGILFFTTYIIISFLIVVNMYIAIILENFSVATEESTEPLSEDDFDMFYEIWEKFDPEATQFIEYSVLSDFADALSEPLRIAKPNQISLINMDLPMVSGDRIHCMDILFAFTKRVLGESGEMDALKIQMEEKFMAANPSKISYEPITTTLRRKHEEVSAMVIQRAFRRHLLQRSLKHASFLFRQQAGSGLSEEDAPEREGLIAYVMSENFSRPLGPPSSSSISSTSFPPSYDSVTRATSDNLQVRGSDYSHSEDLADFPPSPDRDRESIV

O=C(NCc1ncccn1)N1CCc2ccc(-c3ccc(C(F)(F)F)cc3)cc2C1 [IX-89, N-(pyrimidin-2-ylmethyl)-7-(4-(trifluoromethyl)phenyl)-3,4-dihydroisoquinoline-2(1H)-carboxamide]
inhibition at 1 µM [1, 5]: 33%
MS Rat THalf [2]: 192 min
MS Dog THalf [3]: 177 min
MS Human THalf [4]: 125 min

O=C(N1CCc2ccc(-c3ccc(C(F)(F)F)cc3)cc2C1)N1CC(O)C1 [IX-108, (3-hydroxyazetidin-1-yl)(7-(4-(trifluoromethyl)phenyl)-3,4-dihydroisoquinolin-2(1H)-yl)methanone]
inhibition at 1 µM ([1]; % inhibition at 1 μM, read-out: NAv1.5*-LATE-): 30%
inhibition at 1 µM [1, 5]: 30%
MS Rat THalf [2]: 302 min
MS Dog THalf [3]: 370 min
MS Human THalf [4]: 245 min

Cc1noc(Cn2nnc3ccc(-c4ccc(Oc5ccccc5)cc4)cc3c2=O)n1 [II-7, 3-((3-methyl-1,2,4-oxadiazol-5-yl)methyl)-6-(4-phenoxyphenyl)benzo[d][1,2,3]triazin-4(3H)-one]
inhibition at 1 µM [1, 5]: 75%
MS Rat THalf [2]: 10 min
MS Dog THalf [3]: 4 min
MS Human THalf [4]: 10 min

O=c1c2cc(-c3ccc(OC(F)(F)F)cc3)ccc2nnn1CCc1ccccn1 [II-15, 3-(2-(pyridin-2-yl)ethyl)-6-(4-(trifluoromethoxy)phenyl)benzo[d][1,2,3]triazin-4(3H)-one]
inhibition at 1 µM [1, 5]: 71%
MS Rat THalf [2]: 19 min
MS Dog THalf [3]: 23 min
MS Human THalf [4]: 33 min

Cc1cc(C)nc(Cn2ncc3ccc(-c4ccc(OC(F)(F)F)cc4)cc3c2=O)n1 [III-22]
inhibition at 1 µM [1, 5]: 35%
MS Rat THalf [2]: 86 min
MS Dog THalf [3]: 191 min
MS Human THalf [4]: 252 min

CCc1nccn1CC1(Cn2nnc3ccc(-c4ccc(OC(F)(F)F)cc4)cc3c2=O)CC1 [II-57, 3-((1-((2-ethyl-1H-imidazol-1-yl)methyl)cyclopropyl)methyl)-6-(4-(trifluoromethoxy)phenyl)benzo[d][1,2,3]triazin-4(3H)-one]
inhibition at 1 µM [1, 5]: 38%
MS Rat THalf [2]: 2 min
MS Dog THalf [3]: 4 min
MS Human THalf [4]: 2 min

O=c1c2cc(-c3ccc(OC(F)(F)F)cc3)ccc2nnn1C1CCN(CC(F)(F)F)CC1 [II-71, 3-(1-(2,2,2-trifluoroethyl)piperidin-4-yl)-6-(4-(trifluoromethoxy)phenyl)benzo[d][1,2,3]triazin-4(3H)-one]
inhibition at 1 µM [1, 5]: 25%
MS Rat THalf [2]: 94 min
MS Dog THalf [3]: 78 min
MS Human THalf [4]: 75 min

N#Cc1cnc(OCCn2nnc3ccc(-c4ccc(OC(F)(F)F)cc4)cc3c2=O)nc1 [II-51, 2-(2-(4-oxo-6-(4-(trifluoromethoxy)phenyl)benzo[d][1,2,3]triazin-3(4H)-yl)ethoxy)pyrimidine-5-carbonitrile]
inhibition at 1 µM [1, 5]: 35%
MS Rat THalf [2]: 197 min
MS Dog THalf [3]: 93 min
MS Human THalf [4]: > 395 min

O=c1c2cc(-c3ccc(OC(F)(F)F)cc3)ccc2nnn1Cc1coc(C2CCC2)n1 [II-98, 3((2-cyclobutyloxazol-4-yl)methyl)-6-(4-(trifluoromethoxy)phenyl)benzo[d][1,2,3]triazin-4(3H)-one]
inhibition at 1 µM [1, 5]: 41%
MS Rat THalf [2]: 16 min
MS Dog THalf [3]: 34 min
MS Human THalf [4]: 31 min

O=C(Cn1nnc2ccc(-c3ccc(OC(F)(F)F)cc3)cc2c1=O)N1CCN(c2ncccn2)CC1 [II-41, 3-(2-oxo-2-(4-(pyrimidin-2-yl)piperazin-1-yl)ethyl)-6-(4-(trifluoromethoxy)phenyl)benzo[d][1,2,3]triazin-4(3H)-one]
inhibition at 1 µM [1, 5]: 25%
MS Rat THalf [2]: 16 min
MS Dog THalf [3]: 80 min
MS Human THalf [4]: 28 min

Cc1cc(C)n(CCn2ncc3ccc(-c4ccc(OC(F)(F)F)cc4)cc3c2=O)n1 [III-24, 2-(2-(3,5-dimethyl-1H-pyrazol-1-yl)ethyl)-7-(4-(trifluoromethoxy)phenyl)phthalazin-1 (2H)-one]
inhibition at 1 µM [1, 5]: 28%
MS Rat THalf [2]: 9 min
MS Dog THalf [3]: 18 min
MS Human THalf [4]: 13 min

Cc1nc(Cn2nnc3ccc(-c4ccc(OC(F)(F)F)cc4)cc3c2=O)no1 [II-6, 3-((5-methyl-1,2,4-oxadiazol-3-yl)methyl)-6-(4-(trifluoromethoxy)phenyl)benzo[d][1,2,3]triazin-4(3H)-one]
inhibition at 1 µM [1, 5]: 43%
MS Rat THalf [2]: 144 min
MS Dog THalf [3]: 123 min
MS Human THalf [4]: 164 min

CC(c1nc(-c2ncccn2)no1)n1nnc2ccc(-c3ccc(OC(F)(F)F)cc3)cc2c1=O (stereo not drawn) [II-53, 3-(1-(3-(pyrimidin-2-yl)-1,2,4-oxadiazol-5-yl)ethyl)-6-(4-(trifluoromethoxy)phenyl)benzo[d][1,2,3]triazin-4(3H)-one]
inhibition at 1 µM [1, 5]: 29%
MS Rat THalf [2]: > 395 min
MS Dog THalf [3]: 646 min
MS Human THalf [4]: > 395 min

O=C(NCc1ccco1)N1CCc2ccc(-c3ccc(C(F)(F)F)cc3)cc2C1 [IX-48, N-(furan-2-ylmethyl)-7-(4-(trifluoromethyl)phenyl)-3,4-dihydroisoquinoline-2(1H)-carboxamide]
inhibition at 1 µM [1, 5]: 31%
MS Rat THalf [2]: 37 min
MS Dog THalf [3]: 149 min
MS Human THalf [4]: 80 min

CC(C)(COc1ncccn1)Cn1nnc2ccc(-c3ccc(OC(F)(F)F)cc3)cc2c1=O [II-84, 3-(2,2-dimethyl-3-(pyrimidin-2-yloxy)propyl)-6-(4-(trifluoromethoxy)phenyl)benzo[d][1,2,3]triazin-4(3H)-one]
inhibition at 1 µM [1, 5]: 34%
MS Rat THalf [2]: 51 min
MS Dog THalf [3]: 98 min
MS Human THalf [4]: 107 min

O=c1c2cc(-c3ccc(OC(F)(F)F)cc3)ccc2cnn1CCn1cccc1 [III-10, 2-(2-(1H-pyrrol-1-yl)ethyl)-7-(4-(trifluoromethoxy)phenyl)phthalazin-1(2H)-one]
inhibition at 1 µM [1, 5]: 33%
MS Rat THalf [2]: 18 min
MS Dog THalf [3]: 18 min
MS Human THalf [4]: 41 min

O=C(N1CCCC1)N1CCc2ccc(-c3ccc(C(F)(F)F)cc3)cc2C1 [IX-53, pyrrolidin-1-yl(7-(4-(trifluoromethyl)phenyl)-3,4-dihydroisoquinolin-2(1H)-yl)methanone]
inhibition at 1 µM [1, 5]: 33%
MS Rat THalf [2]: 28 min
MS Dog THalf [3]: 93 min
MS Human THalf [4]: 198 min

O=c1c2cc(-c3ccc(OC(F)(F)F)cc3)ccc2cnn1Cc1cccnc1Br [III-14, 2-((2-bromopyridin-3-yl)methyl)-7-(4-(trifluoromethoxy)phenyl)phthalazin-1 (2H)-one]
inhibition at 1 µM [1, 5]: 39%
MS Rat THalf [2]: 55 min
MS Dog THalf [3]: 77 min
MS Human THalf [4]: 251 min

O=c1c2cc(-c3ccc(OC(F)(F)F)cc3)ccc2cnn1Cc1cccnc1C1CC1 [III-20]
inhibition at 1 µM [1, 5]: 28%
MS Rat THalf [2]: 54 min
MS Dog THalf [3]: 61 min
MS Human THalf [4]: 41 min

O=C1c2cc(-c3ccc(OC(F)(F)F)cc3)ccc2CCN1Cc1ccccn1 [IX-2, 2-(pyridin-2-ylmethyl)-7-(4-(trifluoromethoxy)phenyl)-3,4-dihydroisoquinolin-1(2H)-one]
inhibition at 1 µM [1, 5]: 40%
MS Rat THalf [2]: 106 min
MS Dog THalf [3]: 88 min
MS Human THalf [4]: 65 min
